For experiment [1], the target named is Prostaglandin F2-alpha receptor (Mus musculus) (UniProt P43117). As to the kind of experiment: Percent response for stimulation of prostanoid FP receptor-linked phosphoinositide turnover in Swiss 3T3 mouse fibroblast cells.
Experiment [2] deals with Prostaglandin F2-alpha receptor (Bos taurus, UniProt P37289). As to the kind of experiment: Binding affinity for Prostanoid FP receptor of bovine corpus luteum.
A further experiment is filed under the species Felis catus. Put plainly: Effective dose to cat pupil diameter constriction.
The test system of experiment [3] is Monkey. As to the kind of experiment: Percentage change to elicit monkey intraocular pressure at 3 ug. It counts as functional, Cercopithecidae, Eye.
For a further experiment, the species on record is Oryctolagus cuniculus. Put plainly: Effective dose estimated to elicit conjunctival hyperemia in rabbits over 4 h. It counts as functional, Conjunctiva.
Experiment [4] concerns Monkey. Put plainly: Percentage change to elicit monkey intraocular pressure at 0.3 ug. It counts as functional, Cercopithecidae, Eye.
Experiment [5] deals with Monkey. Put plainly: Percentage change to elicit monkey intraocular pressure at 1 ug. It counts as functional, Cercopithecidae, Eye.
Experiment [6] relates to Monkey. Put plainly: Percentage change to elicit monkey intraocular pressure at 30 ug. It counts as functional, Cercopithecidae, Eye.

Structures are written as SMILES.

Chain of Prostaglandin F2-alpha receptor (Mus musculus) (P43117 whole entry, looked up): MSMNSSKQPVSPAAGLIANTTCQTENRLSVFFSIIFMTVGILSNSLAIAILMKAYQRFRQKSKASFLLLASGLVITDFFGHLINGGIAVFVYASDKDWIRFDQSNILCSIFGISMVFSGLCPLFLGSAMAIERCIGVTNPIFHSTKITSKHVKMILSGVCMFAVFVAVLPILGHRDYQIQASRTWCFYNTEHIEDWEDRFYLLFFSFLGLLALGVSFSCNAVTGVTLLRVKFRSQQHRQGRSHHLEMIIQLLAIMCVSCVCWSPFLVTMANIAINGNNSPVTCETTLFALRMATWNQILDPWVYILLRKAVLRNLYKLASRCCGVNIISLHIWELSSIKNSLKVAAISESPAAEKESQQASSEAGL
Chain of Prostaglandin F2-alpha receptor (P37289 whole entry): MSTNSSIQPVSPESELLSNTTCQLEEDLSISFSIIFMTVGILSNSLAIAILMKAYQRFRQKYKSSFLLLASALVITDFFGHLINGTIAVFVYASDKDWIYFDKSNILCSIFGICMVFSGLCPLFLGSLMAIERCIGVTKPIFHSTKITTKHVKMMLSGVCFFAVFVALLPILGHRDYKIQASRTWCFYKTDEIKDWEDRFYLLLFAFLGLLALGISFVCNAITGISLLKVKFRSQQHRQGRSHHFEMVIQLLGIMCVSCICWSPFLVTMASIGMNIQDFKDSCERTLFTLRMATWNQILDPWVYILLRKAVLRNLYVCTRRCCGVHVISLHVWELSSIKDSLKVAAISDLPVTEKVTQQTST

With `O=C(O)CC/C=C\CCC[C@H]1[C@@H](O)CO[C@@H]1/C=C/[C@@H](O)COc1ccccc1`, the Response in experiment [1] came to 83%. For the same molecule, the inhibition constant Ki in experiment [2] stood at 330 nM.
For the molecule `CC(C)OC(=O)CCC/C=C\CC[C@H]1[C@@H](O)CO[C@@H]1/C=C/[C@@H](O)COc1cccc(Cl)c1` [AL-12182], the ED5 in the experiment filed under Felis catus was 0.2 µg; in the experiment listed under Oryctolagus cuniculus, 30 µg. Also, in the experiment on Monkey [3], the Change is -40%.
Regarding `O=C(O)CCCC/C=C\C[C@H]1[C@@H](O)CO[C@@H]1/C=C/[C@H](O)COc1cccc(Cl)c1`, the Response in experiment [1] came to 67%. The Ki in experiment [2] is 7300 nM.
As for `O=C(O)CCCC/C=C\C[C@H]1[C@@H](O)CO[C@@H]1/C=C/[C@@H](O)COc1ccccc1`, in experiment [1], the Response came to 67%. Moreover, in experiment [2], the Ki was determined as 640 nM.
`O=C(O)CCCC/C=C\C[C@H]1[C@@H](O)CO[C@@H]1/C=C/[C@@H](O)COc1cccc(C(F)(F)F)c1`: the Response in experiment [1] is 74%. In experiment [2], this molecule registered an inhibition constant (Ki) of 3100 nM.
For the molecule `O=C(O)CCCC/C=C\C[C@H]1[C@@H](O)CO[C@@H]1/C=C/[C@H](O)COc1ccccc1`, the Response in experiment [1] stood at 49%. In experiment [2], this molecule yielded a Ki of 2800 nM.
With `O=C(O)CC/C=C\CCC[C@H]1[C@@H](O)CO[C@@H]1/C=C/[C@@H](O)COc1cccc(C(F)(F)F)c1`, the Response in experiment [1] came to 88%. The molecule also had a Ki in experiment [2] of 350 nM.
On to `O=C(O)CC/C=C\CCC[C@H]1[C@@H](O)CO[C@@H]1/C=C/[C@H](O)COc1cccc(C(F)(F)F)c1`, for which the Response in experiment [1] came to 61%. Affinity in experiment [2] was put at a Ki of 9900 nM.
For `CC(C)OC(=O)CCC/C=C/C[C@@H]1[C@@H](/C=C/C(O)COc2cccc(C(F)(F)F)c2)[C@H](O)C[C@@H]1O` (stereo partly specified), the Change in the experiment on Monkey [4] was -29%. Moreover, the Response in experiment [1] was found to be 100%. For the same molecule, the ED5 in the experiment listed under Felis catus is 0.01 µg; in the experiment listed under Oryctolagus cuniculus, 3 µg. Besides, in experiment [2], the Ki was determined as 52 nM.
On to `CC(C)OC(=O)CCC/C=C/C[C@@H]1[C@@H](CC[C@@H](O)CCc2ccccc2)[C@H](O)C[C@@H]1O`, for which the Response in experiment [1] was 75%. The figures for the ED5 in the experiment listed under Felis catus and in the experiment listed under Oryctolagus cuniculus were 0.13 µg and 1.8 µg, respectively. Besides, the Change in the experiment with Monkey [3] is recorded as -27%. Moreover, the Ki in experiment [2] came to 92 nM.
With `O=C(O)CCCC/C=C\C[C@H]1[C@@H](O)CO[C@@H]1/C=C/[C@@H](O)COc1cccc(Cl)c1`, in experiment [1], the Response is 84%. The same molecule displayed a Ki in experiment [2] of 890 nM.
As for `CCCCC[C@H](O)/C=C/C1[C@H](O)C[C@H](O)[C@@H]1C/C=C\CCCC(=O)OC(C)C` (stereo partly specified), the Change with Monkey [5] is -38%. Further, the ED5 is 0.03 µg in the experiment filed under Felis catus and below 0.1 µg in the experiment filed under Oryctolagus cuniculus.
As for `O=C(O)CC/C=C\CCC[C@H]1[C@@H](O)CO[C@@H]1/C=C/[C@H](O)COc1ccccc1`, in experiment [1], the Response amounted to 59%. In addition, in experiment [2], the affinity corresponds to a Ki of 5100 nM.
`O=C(O)CC/C=C\CCC[C@H]1[C@@H](O)CO[C@@H]1/C=C/[C@@H](O)COc1cccc(Cl)c1`: the Response in experiment [1] stood at 88%. This molecule displayed an inhibitory constant (Ki) in experiment [2] of 147 nM.
In experiment [2], `CCCCC[C@@H](O)/C=C/[C@H]1OC[C@H](O)[C@@H]1C/C=C\CCCC(=O)O` showed a Ki above 10000 nM.
In experiment [1], `CCCCC[C@H](O)/C=C/[C@H]1OC[C@H](O)[C@@H]1C/C=C\CCCC(=O)O` showed a Response of 64%. The same molecule returned an inhibition constant (Ki) in experiment [2] of 6700 nM.
On to `CC(C)OC(=O)CCC/C=C\C[C@H]1[C@@H](O)CO[C@@H]1/C=C/[C@@H](O)COc1cccc(Cl)c1`, for which the ED5 was 0.8 µg in the experiment listed under Felis catus and 30 µg in the experiment listed under Oryctolagus cuniculus. For the same molecule, in the experiment on Monkey [6], the Change is on record as -15%.
On to `O=C(O)CCCC/C=C\C[C@H]1[C@@H](O)CO[C@@H]1/C=C/[C@H](O)COc1cccc(C(F)(F)F)c1`, for which the Response in experiment [1] was determined as 43%. In experiment [2], the Ki is above 10000 nM.
As for `O=C(O)CC/C=C\CCC[C@H]1[C@@H](O)CO[C@@H]1/C=C/[C@H](O)COc1cccc(Cl)c1`, in experiment [1], the Response was determined as 71%. The molecule further registered an inhibitory constant (Ki) in experiment [2] of 820 nM.

In general, Ki refers to a dissociation constant, usually derived from enzyme kinetics or from competition with a known ligand.

The values are drawn from ChEMBL document CHEMBL1137983, “AL-12182, a novel 11-oxa prostaglandin analog with topical ocular hypotensive activity in the monkey” (Bioorg Med Chem Lett, 2004).
